Reference: patent US20240393292A1, “ALLERGY ANTIGEN AND EPITOPE THEREOF” (HOYU CO., LTD., priority 2019, published 2024)

The substances below were run on IgE antibodies from patients (assay: Wheat epitope mapping (2): overlapping 10-amino-acid peptide fragments shifted by one amino acid). Conditions: serum of patient G4 (adult, general immediate type allergy to wheat).
Assay type: binding, human
How it was run: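 Cellulose-bound 10-mer peptides offset by one residue were probed with patient serum IgE and detected by chemiluminescence. Secondary-antibody-only signals were subtracted per peptide. Residual binding was expressed as % of the parent overlapping peptide, scored as none (<30%), poor (30–<50%), somewhat poor (50–<70%) or retained (≥70%).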
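For Rank of partial sequence as epitope binding to IgE antibody in this document: key = sequence deemed particularly important within the common 15-residue sequence.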
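For epitope sequence binding to IgE antibody, rank (Key/Preferably/More preferably) in this document: key of grades: preferably = shorter partial sequence still acting as epitope; more preferably = sequence improving IgE binding; key = particularly important sequence.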

Row | Substance | epitope sequence binding to IgE antibody, rank (Key/Preferably/More preferably)
1 | 1781 (KEVSSYLKKV; REGION 1..10: note = epitope) [compound 1781] | Key

Same assay, conditions: serum of patient G4 (adult, general immediate type allergy to wheat); sequence without X

Row | Substance | Rank of partial sequence as epitope binding to IgE antibody
2 | 1671 (YNPDKVPF; REGION 1..8: note = epitope) [compound 1671] | Key

Same assay, conditions: serum of patient P2 (WDEIA)

Row | Substance | epitope sequence binding to IgE antibody, rank (Key/Preferably/More preferably)
3 | 1896 (VPLVQQQ; REGION 1..7: note = epitope) [compound 1896] | Preferably

What follows are substances tested on IgE antibody present in the serum of a wheat-allergic patient (assay: Wheat epitope mapping (1): peptide array of overlapping 15-amino-acid peptides, chemiluminescence). Conditions: bound = chemiluminescence value minus N2nd value of 5 non-wheat-allergic subjects at least 35,000; serum of 49 patients.
Assay type: binding, human
Procedure: Epitope mapping was carried out using a library of overlapping peptides (length: 15 amino acids) corresponding to the amino acid sequences identified as allergy components of wheat. Specifically, the library of overlapping peptides was prepared on the basis of the amino acid sequences of SEQ ID NOs: 2, 4, 6, 8, 10, 12, 14, 16, 18, 20, 22, 24, 26 and 28.
The peptides to be synthesized were shifted by 10 amino acids.
For preparation of peptide arrays, the Intavis CelluSpots™ technique was used. Specifically, the peptide arrays were prepared by the following procedure: (1) synthesizing peptides of interest on amino-modified cellulose disks using an automated chemical synthesis apparatus (Intavis MultiPep RS), (2) dissolving the amino-modified cellulose disks to obtain a cellulose-bound peptide solution, and (3) spotting the cellulose-bound peptides onto coated glass slides. The details of each procedure are as described below.
Peptide synthesis was carried out in incremental steps through 9-fluorenylmethoxycarbonyl (Fmoc) chemical reaction on amino-modified cellulose disks in 384-well synthesis plates. Specifically, amino acids in which a Fmoc group is bonded to an amino group were activated in a solution of N,N′-diisopropylcarbodiimide (DIC) and 1-hydroxybenzotriazole (HOBt) in dimethylformamide (DMF) and added dropwise to the cellulose disks so that the Fmoc group-bound amino acids were bound to the amino groups on the cellulose disks (coupling). Unreacted amino groups were capped with acetic anhydride and washed with DMF. Furthermore, the Fmoc groups were eliminated from the amino groups of the amino acids bound to the amino groups on the cellulose disks by treatment with piperidine and washing with DMF. The amino acids bound to the amino groups on the cellulose disks were repetitively subjected to the coupling, the capping, and the Fmoc group elimination described above to elongate the amino terminus for peptide synthesis.
The peptides-bound cellulose disks of interest obtained above in the subsection titled “(1) Synthesis of peptide” were transferred to 96-well plates and treated with a side chain deprotection mixed solution of trifluoroacetic acid (TFA), dichloromethane, triisopropylsilane (TIPS), and water for deprotection of amino acid side chains. Then, the deprotected cellulose-bound peptides were dissolved in a mixed solution of TFA, […] acid (TFMSA), TIPS, and water and precipitated in […] methyl ether (TBME), and the precipitate was resuspended in dimethyl sulfoxide (DMSO) and mixed with a mixed solution of NaCl, sodium citrate, and water to obtain a peptide solution for slide spotting.
The peptide solution for slide spotting obtained above in the subsection titled “(2) Dissolution of amino-modified cellulose disk” was spotted onto Intavis CelluSpots™ slides using Intavis Slide Spotting Robot, and the slides were dried to prepare peptide arrays.
The presence or absence of binding, to each peptide fragment, of an IgE antibody present in the serum of a wheat-allergic patient was measured through antigen-antibody reaction using the peptide arrays. […]

Row | Substance | binding of patient-specific IgE antibodies to 15-residue peptide
4 | SEQ ID NO: 1403: common 15-residue epitope sequence of polypeptide (E22) (QYLQPQQPISQQQAQ; REGION 1..15: note = epitope) | confirmed to bind
5 | SEQ ID NO: 1895: common 15-residue epitope sequence of polypeptide (E31) (QVPLVQQQQFPGQQQ; REGION 1..15: note = epitope) | confirmed to bind
6 | SEQ ID NO: 2027: common 15-residue epitope sequence of polypeptide (E34) (TPGALQYLSGVILFE; REGION 1..15: note = epitope) | confirmed to bind
7 | SEQ ID NO: 131: common 15-residue epitope sequence of polypeptide (E2) (PPFPQQHQQFPQQQI; REGION 1..15: note = epitope) | confirmed to bind
8 | SEQ ID NO: 2809: common 15-residue epitope sequence of polypeptide (E49) (VYSANTHRSKWFRVV; REGION 1..15: note = epitope) | confirmed to bind
9 | SEQ ID NO: 1010: common 15-residue epitope sequence of polypeptide (E14) (WLQQQLVPQLQQPLS; REGION 1..15: note = epitope) | confirmed to bind
10 | SEQ ID NO: 2004: common 15-residue epitope sequence of polypeptide (E33) (STGTIGKRFASINVE; REGION 1..15: note = epitope) | confirmed to bind
11 | SEQ ID NO: 1257: common 15-residue epitope sequence of polypeptide (E19) (SSLVSMILPRSDCKV; REGION 1..15: note = epitope) | confirmed to bind
12 | SEQ ID NO: 1753: common 15-residue epitope sequence of polypeptide (E28) (VKEVSSYLKKVGYNP; REGION 1..15: note = epitope) | confirmed to bind
13 | SEQ ID NO: 1142: common 15-residue epitope sequence of polypeptide (E16) (TEPSQLSIDQNAQGL; REGION 1..15: note = epitope) | confirmed to bind
14 | SEQ ID NO: 2774: common 15-residue epitope sequence of polypeptide (E48) (FLKNGDAGIVKMIPT; REGION 1..15: note = epitope) | confirmed to bind
15 | SEQ ID NO: 191: common 15-residue epitope sequence of polypeptide (E3) (SQQQQPFPQQQQPLL; REGION 1..15: note = epitope) | confirmed to bind
16 | SEQ ID NO: 2830: common 15-residue epitope sequence of polypeptide (E50) (YIVVEGRDGYFEMAC; REGION 1..15: note = epitope) | confirmed to bind
17 | SEQ ID NO: 2309: common 15-residue epitope sequence of polypeptide (E39) (QSRYDAIRAIIYSIV; REGION 1..15: note = epitope) | confirmed to bind
